Experimental findings from PMC9204298, “Inhibiting UCH-L5: Rational Design of a Cyclic Ubiquitin-Based Peptide Inhibitor” (Frontiers in Molecular Biosciences, 2022) are described below.

The subject of the assay is MCF7 cells, level of ubiquitinated substrates. The experiment in a line: Western blot of ubiquitinated substrates in MCF7 cells. The class given is cell-based. To be noted: control, n = 3, Figures 7A,B.

Where a SMILES comes first, the peptide text is derived from it. The star is where a group is joined. Cbz = O=C(OCc1ccccc1)*

Description: DMSO was used as vehicle control. Following the end of the incubation times, MCF7 cells were harvested using 3X NuPAGE SDS Sample buffer (Invitrogen, Cat# NP0007) containing β-mercaptoethanol and 1x DNAse and sonicated in Bioruptor Pico sonicator (Diagenode) (10-sec pulse on, 10 s pulse off for 10 cycles). After boiling them at 95°C for 10 min, the samples run on 4–12% SDS-PAGE agarose gel using MOPS buffer. Proteins were transferred to the nitrocellulose membrane. Ubiquitinated substrates were detected using a mouse anti-ubiquitin (P4D1) antibody (Santa Cruz, Cat# sc-8017). Mouse anti-β-actin (Sigma-Aldrich, Cat# A5441, in 1:10000 dilution) was used to detect actin as a loading control. 800CW goat anti-mouse IgG (H + L) (Li-COR, Cat# 926–32210, 1:5000) were used as secondary antibodies. The signal was detected using direct imaging by Odyssey® CLx Infrared Imaging System (LI-COR). The experiment was repeated in triplicates. The total amount of ubiquitinated substrates and the actin level was quantified using Licor Image studio densitometry software, and the total level of ubiquitinated substrates was normalized to the actin level.

As for `C=CC(=O)N1C/C(=C\c2ccc([N+](=O)[O-])cc2)C(=O)/C(=C/c2ccc([N+](=O)[O-])cc2)C1` [bAP15], under “bAP15 1 µM, 3 h”, the “level of ubiquitinated substrates” value was “increased the level of ubiquitinated substrates”.
`CC(C)C[C@@H](C=O)NC(=O)[C@H](CC(C)C)NC(=O)[C@H](CC(C)C)NC(=O)OCc1ccccc1` [MG132] (Cbz-Leu-Leu-Leu-aldehyde): the “level of ubiquitinated substrates” value (MG132 5 µM, 4 h) is recorded as “increased the level of ubiquitinated substrates”.
